# In patent publication US20100261700A1, “BETA-LACTAMASE INHIBITORS” (priority 2009, published 2010):
# How the values were obtained:
# [1] = target: T1, beta-lactamase from Enterobacter cloacae (Enterobacter cloacae, UniProt P05364); assay: Time dependent inhibition of beta-lactamase, with dialysis to test for return of activity; type: biochemical; conditions: 10 mL 0.1 units/mL beta-lactamase with 500 microM inhibitor, dialysed against 1 L 0.1 M sodium phosphate buffer (pH 7.0), one exchange
# T1 construct: purchased Sigma-Aldrich
# T1 sequence (P05364 21-381): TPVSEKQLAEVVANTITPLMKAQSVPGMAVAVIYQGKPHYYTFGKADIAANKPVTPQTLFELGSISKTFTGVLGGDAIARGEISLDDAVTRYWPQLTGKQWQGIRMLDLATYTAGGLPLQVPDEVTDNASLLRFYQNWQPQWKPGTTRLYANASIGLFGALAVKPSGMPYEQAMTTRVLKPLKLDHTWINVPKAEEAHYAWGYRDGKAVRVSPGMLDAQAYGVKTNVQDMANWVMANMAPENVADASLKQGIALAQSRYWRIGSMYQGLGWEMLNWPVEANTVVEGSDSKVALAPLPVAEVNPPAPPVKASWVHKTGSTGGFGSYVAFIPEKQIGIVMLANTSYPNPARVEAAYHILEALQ
# [2] = target: T1, beta-lactamase from Enterobacter cloacae; assay: Assay (I) for beta-lactamase activity, Cefesone hydrolysis (product inhibition); type: biochemical; conditions: reaction continued for two hours; theoretical maximal absorbance approximately 1.6; said to be consistent with product inhibition
# Experimental: A chromogenic cephalosporin, Cefesone, is synthesized and isolated, for example, as described by Sutton et al. International Application WO 2009/049086 and used to monitor p-lactamase activity. A typical assay monitors the hydrolysis of Cefesone via the formation of a species which absorbs at 486 nm (molar absorptivity constant 16,000). Absorption is monitored as a function of time in 0.1 M, pH 7.0 sodium phosphate, 0.2 mM Cefesone and 4 volume percent DMSO cosolvent at 30° C. using a Beckman DU-40 spectrophotometer having a circulating water bath attached to the cuvette holder. The assay is initiated by addition and mixing of an appropriate amount of beta-lactamase.
# The beta-lactamase assay using enzyme fro Enterobacter cloacae (Sigma-Aldrich, St. Louis, Mo.) was carried out as in Example 2 (assay I) above with compound 2. After the initial rate was determined the reaction was allowed to continue for two hours. Theoretical maximal absorbance at 486 nm is approximately 1.6 while the observed final absorbance was consistently 0.26.
Structure (SMILES),return of beta-lactamase activity after dialysis [1],observed final absorbance at 486 nm [2]
"O=C(Cc1ccccc1)NC1C(=O)N2C(C(=O)O)=C(/C=C/c3ccc(CBr)cc3)CSC12 (stereo not drawn) [compound 4, 3-(1-bromomethyl-4-vinylbenzene)-7-(2-phenylacetamido)-3-Cephem-4-carboxylic acid]",no return of activity,
"O=C(Cc1ccccc1)NC1C(=O)N2C(C(=O)O)=C(/C=C/C3CC3)CSC12 (stereo not drawn) [compound 2, 3-vinylcyclopropane-7-(2-phenylacetamido)-3-Cephem-4-carboxylic acid]",no return of activity,0.26
